Assay results taken from patent publication US20170334899A1, “AMINO-SUBSTITUTED ISOTHIAZOLES” (Bayer Pharma Aktiengesellschaft, priority 2014, published 2017).

Experiments:
Type in all cases: cell-based
Caco-2 = assay: Proliferation assay (crystal violet), Caco-2; conditions: Homo sapiens, 96 h; Caco-2 cells; 4 days incubation; crystal violet staining; read-out: IC50 inhibition of proliferation, Caco2
Procedure, shortened: (§1)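 Absorbance at 595 nm of crystal-violet-stained cells after 4 days' exposure to 0.001–10 μM compound (0.5% DMSO). Values normalized to a day-0 plate (0%) and untreated cells (100%); IC50 by 4-parameter fit.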

B16F10 = assay: Proliferation assay (crystal violet), B16F10; conditions: Mus musculus, B16-F10, 96 h; B16F10 cells; 4 days incubation; crystal violet staining; read-out: IC50 inhibition of proliferation, B16F10
Procedure, shortened: as §1

NCI-H460 = assay: Proliferation assay (crystal violet), NCI-H460; conditions: Homo sapiens, 96 h; NCI-H460 cells; 4 days incubation; crystal violet staining; read-out: IC50 inhibition of proliferation, NCI-H460
Procedure, shortened: as §1

DU145 = assay: Proliferation assay (crystal violet), DU145; conditions: Homo sapiens, DU-145, 96 h; DU145 cells; 4 days incubation; crystal violet staining; read-out: IC50 inhibition of proliferation, DU145
Procedure, shortened: as §1

HeLa-MaTu-ADR = assay: Proliferation assay (crystal violet), HeLa-MaTu-ADR; conditions: 96 h; HeLa-MaTu-ADR cells; 4 days incubation; crystal violet staining; read-out: IC50 inhibition of proliferation, HeLa-MaTu-ADR
Procedure, shortened: as §1

| IC50 (Caco-2) [µM] | IC50 (B16F10) [µM] | IC50 (NCI-H460) [µM] | IC50 (DU145) [µM] | IC50 (HeLa-MaTu-ADR) [µM] | SMILES |
| --- | --- | --- | --- | --- | --- |
| 1.1 | 0.95 | 0.73 | 3 | 0.88 | Cc1nsc(Nc2cnc3ccccc3n2)c1C(=O)Nc1ccc(OC2CCCN(C(=O)OC(C)(C)C)C2)nc1 (stereo not shown) [Example 31, tert-Butyl 3-{[5-({[3-methyl-5-(quinoxalin-2-ylamino)-1,2-thiazol-4-yl]carbonyl}-amino)pyridin-2-yl]oxy}piperidine-1-carboxylate] |
| 0.35 | 0.39 | 0.31 | 0.64 | 0.23 | Cc1nsc(Nc2ccc(C#N)cn2)c1C(=O)Nc1ccc(OC2CCN(CC(F)(F)F)CC2)nc1 [Example 30, 5-[(5-Cyanopyridin-2-yl)amino]-3-methyl-N-(6-{[1-(2,2,2-trifluoroethyl)piperidin-4-yl]oxy}pyridin-3-yl)-1,2-thiazole-4-carboxamide] |
